Reference: US20240216476A1, “COMBINATION OF BITTER RECEPTOR AGONIST AND GUT-SIGNALING COMPOUND” (AARDVARK THERAPEUTICS, INC., priority 2021, published 2024)
“And” between values parts separate entries of the source, which are not always exact repeats. Identical values can stand only once. “Also recorded” adds a separate entry of the source. Like-named read-outs stand apart in the source and are kept apart here. Marks after values point to notes of the source that are not given here.

Legend:
[1] = in vivo; cited from earlier work
[2] = system: C57Bl/6J mice fed with high-fat diet; experiment: DA in C57Bl/6J mice fed with high-fat diet, 8 weeks (Table 11); type: in vivo, mouse
Text: Similarly, Table 11 provides a comparison of denatonium acetate (DA) with DPP-4 inhibitors in similar ob/ob mice model. The data for the DPP-4 inhibitors was obtained from Am. J. Physiol. Endocrinol. Metab. 2011; 300(2); E410-E421. Biochim. Biophys. Acta Gen. Subj. 2018; 1862(3):403-413. PLOS One. 2012; 7(6):e38744; and Aging Cell. 2019; 18(2):e12883.

[3] = system: AMLN-diet induced mice (fatty liver disease/NASH model); type: in vivo; conditions: in words
Text: This Example provides the results obtained from an in vivo mouse model of fatty liver disease treatment to investigate the therapeutic effect of DA on the treatment of NASH versus positive control semaglutide (a GLP-1 agonist marketed drug for lowering HbA1c). This study used a positive control semaglutide, a vehicle control, study drug DA and a combination of semaglutide and DA. Mouse strain (B6 mice) was used, and the animals were already adults (23 weeks old) when the study began because the animals were already fed an AMLN diet for 17 weeks prior to the study being initiated. The study dose began at 75 mg/kg BID.
The study included 3 groups of 10 mice each, (A) vehicle control with distilled water by gavage BID, (B) DA by gavage BID, and (C) semaglutide […] sc QD. Body weights and changes were measured 3× per week. Serum metabolic markers (blood glucose, blood insulin, HbA1c, HDL, LDL triglycerides and bile acids) were measured at beginning of dosing (baseline) and end of study. At the end of the study, histopathology of liver samples and serum levels of inflammatory biomarkers (IL-6, TNFα, CK-18 and TGF-β) were evaluated. Histopathology was performed blindly with a scoring scale according to NAFLD Activity Score and Fibrosis Score according to Table 13. Table 14 identifies the kits and equipment used to measure serum parameters.

[4] = human, in vivo, po
Text: Accordingly, the gut peptide hormone data in both the in vivo studies in the examples herein and the phase 1 clinical trial data in Example 3 show synergy for the treatment and/or management of glucagon-related diseases, disorders or conditions, various indications. […] The clinical data also corroborated the DIO mouse data (Example 2). Yet, the marketers of GLP-1 agonists (like those available from Novo Nordisk, Lilly) claim only GLP-1 is important for both diabetes and weight loss. Also, DPP-4 is an enzyme that degrades GLP-1 and PYY to give both of those hormones short half-lives. Accordingly, in some embodiments herein, a DPP-4 inhibitor is used as part of the API combination.
Therefore, both the pharmacokinetic data in a clinical trial (Example 3) for DA and the pharmacokinetic data published for commercially-marketed sitagliptin, support non-cumulative toxicity risk. Accordingly, DPP-4i drugs and the denatonium salts listed herein are an effective oral combination for the treatment of obesity.
For sitagliptin as a single agent, the current guidelines indicate a daily dose of 100 mg PO QD (notwithstanding for those with renal impairment, recommended doses can be as low as 25 mg to 50 mg PO QD). […] In view of DA's pharmacokinetics (substantial gut restriction) and relatively non-toxic nature, the optimal dose ranges can be safely adjusted higher. […]

[5] = Appetite suppression effect of DA in animals; type: in vivo
Text: Thus, twice daily dosing is preferred for abrogation of appetite throughout the day. […] Therefore, the preferred dosing for MetS treatment is QD.

[6] = system: high-fat diet-induced obese (DIO) mice; type: in vivo; conditions: in words
Method: This Example provides the results from an in vivo study of denatonium acetate and sitagliptin in high-fat diet-induced obese (DIO) mice. C57BL/6NTac mice (at least 12 weeks of age) were fed with a high fat diet. All mice were dosed orally by gavage as (a) Vehicle group (N=15) dosed with distilled water BID, (b) DA group (N=15) dosed at 75 mg/kg (denatonium weight) BID; (c) sitagliptin group (N=15) dosed by gavage with 10 mg/kg QD; and (d) DA+ sitagliptin group (N=15) treated with DA at 75 mg/kg (denatonium based weight) BID and sitagliptin at 10 mg/kg by gavage QD. The groups were dosed for 8 weeks followed by a 5-7 day […] period. Body weight and body weight changes were measured three times per week. Serum biomarker levels for blood glucose (after fasting 6-8 hours), blood insulin, percentage of blood HvA1c, HDL, LDL, total triglycerides (TG), total cholesterol (TC) and bile acid were measured twice during the study at day 28 and at the end (day 56) of the study. Cumulative food intake and water consumption for each animal was measured.

[7] = system: high fat diet induced obese (DIO) mouse model; experiment: 4-week study of DA, liraglutide or their combination in high fat diet induced obese (DIO) mice (Example 2); type: in vivo
Method: After arrival at the testing facility, all animals were acclimated to the vivarium for a period no less than 3 days and placed on a 60% Fat Rodent Diet (D12492; Research Diets), 12:12 dark/light cycle and group housed, 2-3 in hepa-filtered cages. All treatments were continued for four weeks. During the study period, gross observation (animal behavior and clinical signs) was conducted, and body weight measurement was performed three times per week for each animal. At the end of the study, all animals were fasted overnight before measurements were taken for serum levels of glucose, insulin, hemoglobin A1c (HbA1c), low-density lipoprotein (LDL) cholesterol, high-density lipoprotein (HDL) cholesterol, triglyceride (TG), and bile acid (BA). Statistical analysis of data was performed using one tail Student's t-test on Excel.

[8] = system: gut peptide hormones GLP-1, GLP-2 and PYY; experiment: Phase 1 clinical trial of DA: gut peptide hormones before and one hour after a single oral dose (Example 3); type: in vivo, human; conditions: in words, single dose DA 240 mg tablet vs placebo
Method: This Example provides data of three gut peptide hormones from a phase 1 clinical trial of denatonium acetate after a single dose of DA at 240 mg in a tablet in the formulation disclosed herein. The subjects were either placebo or 240 mg DA and blood samples were taken just prior to dosing and one hour after oral dosing.

[9] = system: ob/ob mice; experiment: DA in ob/ob mice fed with high-fat diet, 8 weeks (Table 10); type: in vivo, mouse; conditions: DA 50 mg/kg BID for 8 weeks
Text: The data for the DPP-4 inhibitors was obtained from J. Clin. Biochem. Nutr. 2015; 57(3):244-53. Acta Pharmacol. Sin. 2012; 33(8): 1013-22. J. Pharmacol. Exp. Ther. 2012; 342(1): 71-80; and Eur. J. Pharmacol. 2008; 588(2-3):325-32.

[10] = in vivo; cited from earlier work; remark: listed apart in the source
[11] = pig, in vivo; cited from earlier work
[12] = each animal, end of study (Day 31), DA 75 mg/kg PO BID, liraglutide 200 μg/kg SC BID, 4-week dosing
[13] = group mean, end of study (Day 31), DA 75 mg/kg PO BID, liraglutide 200 μg/kg SC BID, 4-week dosing
[14] = in words, vs vehicle, Day 31, DA 75 mg/kg PO BID, liraglutide 200 μg/kg SC BID
[15] = in words, Day 31, 4-week dosing

O=C1[C@H](CC[C@H](O)c2ccc(F)cc2)[C@@H](c2ccc(O)cc2)N1c1ccc(F)cc1 [Ezetimibe]
reduction of LDL cholesterol [1]: about 18%

CC(=O)[O-].CC[N+](CC)(CC(=O)Nc1c(C)cccc1C)Cc1ccccc1 [DA, denatonium acetate]
Control-adjusted Percent Change in Body Weight Gain ([2]; DA 75 mg/kg BID for 8 weeks): −33.9%* | Control-adjusted Percent Change in Fasting Blood Glucose ([2]; DA 75 mg/kg BID for 8 weeks): −5.3% | Control-adjusted Percent Change in GLP-1 Level ([2]; DA 75 mg/kg BID for 8 weeks): +27.5%* | Control-adjusted Percent Change in Insulin Level ([2]; DA 75 mg/kg BID for 8 weeks): −42.9% | Control-adjusted Percent Change in Lipid Levels: LDL ([2]; DA 75 mg/kg BID for 8 weeks): −18.3% in LDL | Control-adjusted Percent Change in HbA1c Level ([2]; DA 75 mg/kg BID, at the end of Week 4): −3.7%* (at the | NAFLD Activity Score based on blinded histopathologic review ([3]; 12 weeks, DA 75 then 50 mg/kg BID by gavage, semaglutide 10 mmol/kg sc QD): significantly improved NAFLD Activity Score | body weight and body weight change ([3]; 12 weeks, DA 75 then 50 mg/kg BID, semaglutide 10 mmol/kg sc QD): remarkable effect on body weight | HDLs ([3]; end of study): significantly decreased | LDLs ([3]; end of study): significantly decreased | TGs ([3]; end of study): significantly decreased | gut-restricted [4]: ~99% | safe dosing in phase 1 clinical trial [4]: safely dosed to 240 mg PO BID | duration of observed appetite suppression effect [5]: about 8 hours | fasting blood glucose levels ([6]; vs vehicle controls, day 28 and day 56): significantly decreased fasting blood glucose levels | high-density lipoprotein (HDL) levels ([6]; vs vehicle controls, day 56 (FIG. 22B)): significantly decreased high-density lipoprotein (HDL) levels | weight loss ([6]; 56-day study summary): significant weight loss; also recorded: statistically significant reduction of weight in the DA group versus the sitagliptin group | effect on body weight (relative body weight percentage and relative body weight change) ([6]; DA 75 mg/kg BID, sitagliptin 10 mg/kg QD by gavage, 8 weeks): much greater effect on body weight | effect on body weight ([6]; day 56): significant effect on body weight | translationally relevant biomarkers (blood glucose, HbA1C, insulin, triglycerides, LDL cholesterol, total cholesterol) ([6]; relative to sitagliptin alone): superior benefit relative to sitagliptin alone | Body Weight Gain [7, 12]: 10.1 g and 6.7 g and 7.2 g (3×) and 9.6 g (2×) and 7.4 g and 5.2 g and 7 g and 8.1 g and 6.9 g and 11.2 g and 4.5 g and 7.5 g | Serum TG Level [7, 12]: 13.06 mmol/L and 13.49 mmol/L and 11.69 mmol/L and 13.35 mmol/L and 18.18 mmol/L and 14.27 mmol/L and 15.38 mmol/L and 12.93 mmol/L and 15.46 mmol/L and 19.24 mmol/L and 11.73 mmol/L and 15.13 mmol/L and 13.72 mmol/L and 13.59 mmol/L and 15.48 mmol/L | Body Weight Gain, Mean [7, 13]: 7.69 g | Serum TG Level, Mean [7, 13]: 14.45 mmol/L | serum BA level ([7]; in words, vs vehicle control, Day 31, 4-week dosing): significant increase in serum BA level | Body Weight Gain [7, 14]: significantly reduced | Serum TG Level [7, 14]: significantly decreased serum TG level | serum HbA1c level [7, 15]: did not show significant effect | serum LDL level [7, 15]: no significant difference in serum LDL level | serum glucose level [7, 15]: significantly decreased serum glucose level | serum insulin level [7, 15]: considerably decreased serum insulin level | percent change for GLP-1 between time 0 and one hour after oral dosing [8]: the difference was significant | GLP-2 gut peptide hormone ([8]; one hour after dosing): trend for GLP-2 gut peptide hormone increase | PYY gut peptide hormone ([8]; one hour after dosing): trend for PYY gut peptide hormone increase | Control-adjusted Percent Change in Fasting Blood Glucose [9]: −29.3%* | Control-adjusted Percent Change in HbA1c Level [9]: +0.8% | Control-adjusted Percent Change in Insulin Level [9]: +4.3% | Control-adjusted Percent Change in LDL Level [9]: −27.5%* | Control-adjusted Percent Change in TG Level [9]: −21.2%*

PYY: gut peptide hormone released from L-cells
half-life [10]: 9 to 14 min

PYY (3-36): DPP-4 cleaved form of the gut peptide hormone PYY
half-life [11]: < 30 min
